Assay results from patent US20150284399A1, “PROCESSES FOR THE PREPARATION OF S1P1 RECEPTOR MODULATORS AND CRYSTALLINE FORMS THEREOF” (Arena Pharmaceuticals, Inc., priority 2010, published 2015).

Key:
[1] = system: Male Sprague-Dawley rats; test: Rat Peripheral Lymphocyte Lowering (PLL) assay; type: in vivo; details: 1.0 mg/kg oral dose in 0.5% methyl cellulose in water; 5 h post-dose; vs vehicle; FIG. 16
Protocol: Male Sprague-Dawley rats (Charles River Laboratories, Hollister, Calif.) were housed and maintained in humidity (40 to 60%) and temperature (68 to 72° F.) controlled facility on a 12 h: 12 h light/dark cycle (lights on at 6:30 am) with free access to food (Harlan Teklad, Orange, Calif., Rodent Diet 8604) and water. Rats were allowed (approximately) one week of habituation to the animal facility before testing.
Rats were given a 1.0 mg/kg oral dose of (R)-2-(9-chloro-7-(4-isopropoxy-3-(trifluoromethyl)benzyloxy)-2,3-dihydro-1H-pyrrolo[1,2-a]indol-1-yl)acetic acid or dosing vehicle (0.5% methyl cellulose in water) in a total volume of 1 mL/kg. Peripheral blood samples were collected at 5 h post-dose. Blood was collected via indwelling catheter. A complete cell count (CBC), including lymphocyte count, was obtained using a CELL-DYN® 3700 (Abbott Laboratories, Abbott Park, Ill.) instrument. Results are presented in FIG. 16, in which peripheral blood lymphocyte (PBL) count is shown for the 5 hour group.

[2] = Dynamic moisture sorption (DMS); type: physicochemical; details: crystalline form
Protocol: Samples are prepared for dynamic moisture-sorption analysis by placing ˜5 mg to ˜20 mg of compound in a tarred sample holder on the VTI balance. The instrument is a dynamic moisture-sorption analyzer, VTI Corporation, SGA-100. A drying step is run at 40° C. and ˜1% RH for 1 h. The isotherm temperature is 25° C. A % weight change over 10 min (5 weight readings) of dm/dt=0.010 or 2 h, whichever occurs first, is required before continuing to the next step. The water content of the sample equilibrated as described above was determined from 30% RH to 90% RH and then back down to 10% RH.

[3] = target: T1, S1P1 receptor (Homo sapiens, UniProt P21453); test: HTRF assay for direct cAMP measurement; type: cell-based; details: recombinant CHO-K1 cells stably transfected with S1P1; agonist detected as decrease of cAMP concentration
T1 construct: expressed in transfected cells; host or cells: CHO-K1 (ATCC CCL-61), stably transfected
T1 sequence (P21453 whole entry): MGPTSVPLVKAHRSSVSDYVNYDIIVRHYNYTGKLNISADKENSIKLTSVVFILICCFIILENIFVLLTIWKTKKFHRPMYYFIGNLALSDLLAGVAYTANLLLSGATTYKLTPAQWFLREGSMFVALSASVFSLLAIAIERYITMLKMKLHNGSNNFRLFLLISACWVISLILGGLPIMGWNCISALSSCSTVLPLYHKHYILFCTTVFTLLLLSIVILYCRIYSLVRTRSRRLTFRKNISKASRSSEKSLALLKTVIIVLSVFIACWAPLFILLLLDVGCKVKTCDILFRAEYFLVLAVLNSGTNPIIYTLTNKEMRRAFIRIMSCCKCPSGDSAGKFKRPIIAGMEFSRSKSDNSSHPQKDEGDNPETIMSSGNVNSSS
Excerpt: Compounds were screened for agonists of the S1P1 receptor (e.g., human S1P1 receptor) using the HTRF® assay for direct cAMP measurement (Gabriel et al., Assay and Drug Development Technologies, 1:291-303, 2003) and recombinant CHO-K1 cells stably transfected with S1P1. CHO-K1 cells were obtained from ATCC® (Manassas, Va.; Catalog #CCL-61). An agonist of the S1P1 receptor was detected in the HTRF® assay for direct cAMP measurement as a compound which decreased cAMP concentration. HTRF® assay also was used to determine EC50 values for S1P1 receptor agonists.
HTRF® assay kit was purchased from Cisbio-US, Inc. (Bedford, Mass.; Catalog #62AM4PEC). […] The specific signal (i.e., fluorescence resonance energy transfer, FRET) is inversely proportional to the concentration of unlabeled cAMP in the standard or sample.
The fluorescence ratio (665 nm/620 nm) of the standards (0.17 to 712 nM cAMP) included in the assay was calculated and used to generate a cAMP standard curve according to the kit manufacturer's instructions. The fluorescence ratio of the samples (test compound or compound buffer) was calculated and used to deduce respective cAMP concentrations by reference to the cAMP standard curve. […]
HTRF® readout was accomplished using a PHERAstar (BMG LABTECH Inc., Durham, N.C.) or EnVision™ (PerkinElmer, Fremont Calif.) microplate reader.

CC(C)Oc1ccc(COc2ccc3c(c2)c(Cl)c2n3CC[C@@H]2CC(=O)O)cc1C(F)(F)F [(R)-2-(9-chloro-7-(4-isopropoxy-3-(trifluoromethyl)benzyloxy)-2,3-dihydro-1H-pyrrolo[1,2-a]indol-1-yl)acetic acid]
peripheral blood lymphocyte (PBL) lowering (lymphopenia) [1]: exhibited activity for inducing PBL lowering (lymphopenia) | hygroscopicity (DMS) ([2]; 10% RH to 90% RH at 25° C.): non-hygroscopic | DMS weight gain over the full range of % RH tested ([2]; 10% RH to 90% RH at 25° C., listed as Crystalline form of (R)-2-(9-chloro-7-(4-isopropoxy-3-(trifluoromethyl)benzyloxy))): FIG. 3: gains less than about 0.1% weight over the full range | DMS weight gain over the full range of % RH tested ([2]; 10% RH to 90% RH at 25° C., listed as crystalline form of (R)-2-(9-chloro-7-(4-isopropoxy-3-(trifluoromethyl)benzyloxy))): less than 0.1 % weight | DMS maximum weight gain ([2]; adsorption phase of the DMS cycle at about 70% RH): about 0.06% | EC50 [3]: 0.028 nM
